According to publication PMC10272112 (Nature Communications, 2023):
Read-outs that look alike come from different tables or passages of the source.

Target: HDAC1 (Homo sapiens, UniProt Q13547)
Experiment: Chemoproteomic competition pulldown assay
Type: binding
Set-up: endogenous in cells; host or cells: SW620, MV4-11, A549 lysates
Conditions: for Kd: read-out: pKdapp (converted)
Experimental: To identify proteins directly bound by lipoic acid, we employed a chemoproteomic competition assay. Briefly, (R/S)-LA was immobilized on sepharose beads via an amidation reaction to form an affinity matrix (abbreviated as iL; Fig. 1a). This affinity matrix can be incubated with cell lysate to pull down potential LA or LM target proteins and identify these targets via bottom-up proteomics. In a competition assay, free LA or LM were incubated with lysate at different concentrations before pulling down and quantifying target proteins. […] (Fig. 1b, see “Methods” for details). […] The lysate buffer used in this assay contains 1 mM DTT to mimic the intracellular reductive milieu and to reduce lipoic acid and LM. […] Additional competition assays performed in lung adenocarcinoma cell A549 lysate also identified HDAC1, HDAC2, and HDAC6 as targets (Supplementary Fig. 1b). Amongst the three cell lines tested, HDACs were the only confidently identified targets across the 1500–3000 proteins quantified in these assays. […] We validated the results by analogous pulldown competition assays using two other affinity matrices prepared via the immobilization of either the HDAC inhibitor Quisinostat (iQ) and an analog of the class IIa HDAC inhibitor Bürli’s 31[14] (iC)[12]. We have previously shown that these affinity matrices specifically bind to the active sites of HDACs and have used them for HDACi selectivity profiling. Indeed, binding of (R/S)-LA and (R/S)-LM to HDAC1, HDAC2, HDAC3, HDAC6, and, to a lesser extent, HDAC8 was confirmed in these assays (Supplementary Fig. 1c, d). No binding to class IIa HDACs or the recently discovered common HDAC inhibitor off-target MBLAC2 was observed (Supplementary Fig. 1e)[12]. […] This observation might reflect electrostatic repulsion between the HDAC10 active site gate-keeper glutamic acid residues[15],[16] and the terminal carboxylic acid of LA.
To assess the degree of protein depletion from lysates by the affinity matrix, a second pulldown (PDPD) with fresh beads was performed using the unbound protein fraction from the vehicle control flow through. The beads were washed (1 × 1 mL of lysis buffer without inhibitors and only 0.4% Igepal, 2 × 2 mL of lysis buffer without inhibitors and only 0.2% Igepal), and captured proteins were denatured with 8 M urea buffer, alkylated with 55 mM chloroacetamide and digested with Trypsin according to standard procedures. The resulting peptides were desalted on a C18 filter plate (Sep-Pak® tC18 µElution Plate, Waters), vacuum dried, and stored at −20 °C until LC–MSMS measurement.
For the competition assays, relative binding was calculated based on the protein intensity ratio to the DMSO control for every single inhibitor concentration. EC50 values were derived from a four-parameter log-logistic regression with variable slope (constrain: bottom > 0). The obtained EC50 values were multiplied with a protein-dependent correction factor (cf), resulting in the apparent Kd value (Kd^app). The correction factor is determined by calculating the ratio of the protein intensity of two consecutive pulldowns of the vehicle control sample[13]. Targets of the inhibitors were annotated manually according to published procedures[12],[46],[47]. […] Additionally, the number of unique peptides and MSMS counts per condition were taken into account. Positive target binding across several independent experiments performed with different cell lysates further substantiated our confidence for a true positive drug-target binding event.

[1] = iQ, SW620 lysate, log10 M -3.52288
[2] = iQ, SW620 lysate, log10 M -4.52288
[3] = iQ, SW620 lysate, log10 M -5.52288
[4] = iQ, SW620 lysate, log10 M -6.52288

Sequence of HDAC1 (Q13547 whole entry): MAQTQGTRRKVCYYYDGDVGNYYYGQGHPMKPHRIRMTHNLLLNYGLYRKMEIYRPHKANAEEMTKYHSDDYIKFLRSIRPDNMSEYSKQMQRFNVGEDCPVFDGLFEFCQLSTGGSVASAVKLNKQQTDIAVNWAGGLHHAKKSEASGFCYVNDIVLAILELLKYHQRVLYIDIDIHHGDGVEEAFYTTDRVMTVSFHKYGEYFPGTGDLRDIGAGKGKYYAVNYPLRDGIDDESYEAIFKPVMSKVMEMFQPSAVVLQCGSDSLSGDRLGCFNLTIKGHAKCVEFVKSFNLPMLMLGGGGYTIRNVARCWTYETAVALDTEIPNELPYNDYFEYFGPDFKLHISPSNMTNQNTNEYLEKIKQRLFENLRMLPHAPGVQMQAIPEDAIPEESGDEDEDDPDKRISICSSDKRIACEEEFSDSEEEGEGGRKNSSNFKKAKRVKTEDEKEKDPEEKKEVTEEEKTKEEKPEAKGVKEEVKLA

## O=C(O)CCCCC1CCSS1 (racemic) [(R/S)-LA, (R/S)-lipoic acid]
iL, A549
  Kd: 1 µM
iL, A549 lysate, log10 M -4
  relative binding vs DMSO: 0.3621
iL, A549 lysate, log10 M -4.52288
  relative binding vs DMSO: 0.1828
iL, A549 lysate, log10 M -5
  relative binding vs DMSO: 0.2687
iL, A549 lysate, log10 M -5.52288
  relative binding vs DMSO: 0.5244
iL, A549 lysate, log10 M -6
  relative binding vs DMSO: 0.7392
iL, A549 lysate, log10 M -6.52288
  relative binding vs DMSO: 0.8303
iL, A549 lysate, log10 M -7.52288
  relative binding vs DMSO: 1.235
iL, A549 lysate, log10 M -8
  relative binding vs DMSO: 1.138
iL, A549 lysate, log10 M -8.52288
  relative binding vs DMSO: 1.054
iL, SW620
  Kd: 7.94 µM
iL, SW620 lysate, log10 M -3.52288
  relative binding vs DMSO: 0.1153
iL, SW620 lysate, log10 M -4
  relative binding vs DMSO: 0.1408
iL, SW620 lysate, log10 M -4.52288
  relative binding vs DMSO: 0.5904
iL, SW620 lysate, log10 M -5
  relative binding vs DMSO: 0.9976
iL, SW620 lysate, log10 M -5.52288
  relative binding vs DMSO: 0.8296
iL, SW620 lysate, log10 M -6
  relative binding vs DMSO: 0.9942
iL, SW620 lysate, log10 M -6.52288
  relative binding vs DMSO: 0.9252
iL, SW620 lysate, log10 M -7
  relative binding vs DMSO: 1.135
iQ, SW620
  Kd: 25.1 µM
[1]
  relative binding vs DMSO: 0.2247
iQ, SW620 lysate, log10 M -4
  relative binding vs DMSO: 0.2525
[2]
  relative binding vs DMSO: 0.6007
iQ, SW620 lysate, log10 M -5
  relative binding vs DMSO: 0.7446
[3]
  relative binding vs DMSO: 0.8354
iQ, SW620 lysate, log10 M -6
  relative binding vs DMSO: 0.8396
[4]
  relative binding vs DMSO: 0.9165
iQ, SW620 lysate, log10 M -7
  relative binding vs DMSO: 0.8126

## NC(=O)CCCCC1CCSS1 (racemic) [(R/S)-LM, (R/S)-lipoamide]
iL, MV4-11 lysate, log10 M -3.52288
  relative binding vs DMSO: 0.1265
iL, MV4-11 lysate, log10 M -4
  relative binding vs DMSO: 0.2225
iL, MV4-11 lysate, log10 M -4.52288
  relative binding vs DMSO: 0.3978
iL, MV4-11 lysate, log10 M -5
  relative binding vs DMSO: 0.749
iL, MV4-11 lysate, log10 M -5.52288
  relative binding vs DMSO: 0.6057
iL, MV4-11 lysate, log10 M -6
  relative binding vs DMSO: 0.6823
iL, MV4-11 lysate, log10 M -6.52288
  relative binding vs DMSO: 0.771
iL, MV4-11 lysate, log10 M -7
  relative binding vs DMSO: 0.9295
iL, MV411
  Kd: 10 µM
iL, SW620
  Kd: 12.6 µM
iQ, SW620
  Kd: 20 µM
[1]
  relative binding vs DMSO: 0.1684
iQ, SW620 lysate, log10 M -4
  relative binding vs DMSO: 0.2856
[2]
  relative binding vs DMSO: 0.6671
iQ, SW620 lysate, log10 M -5
  relative binding vs DMSO: 1.011
[3]
  relative binding vs DMSO: 0.8661
iQ, SW620 lysate, log10 M -6
  relative binding vs DMSO: 1.096
[4]
  relative binding vs DMSO: 1.037
iQ, SW620 lysate, log10 M -7
  relative binding vs DMSO: 1.154
